Data on 23 compounds can be found in patent US11702404B2, “GLP-1R modulating compounds” (priority 2019, dated 2023).

Usually EC50 stands for the midpoint of the concentration-response curve.

Read-outs that look alike come from different tables or passages of the source.

In data set [1] the target is GLP-1R (Homo sapiens, UniProt P43220). The experiment in a line: GLP-1R activation: cAMP increase in CHO cells stably expressing GLP-1R. The data set is classed as cell-based.
Data set [2] can be described thus: Microsomal stability, human liver microsomes (predicted hepatic clearance). As to conditions: predicted from in vitro microsomal stability data.
[3] abbreviates: cAMP increase, CHO cells stably expressing GLP-1R, 10 point dose response, 30 minutes incubation, read-out: EC50.

Sequence of GLP-1R (P43220 24-463): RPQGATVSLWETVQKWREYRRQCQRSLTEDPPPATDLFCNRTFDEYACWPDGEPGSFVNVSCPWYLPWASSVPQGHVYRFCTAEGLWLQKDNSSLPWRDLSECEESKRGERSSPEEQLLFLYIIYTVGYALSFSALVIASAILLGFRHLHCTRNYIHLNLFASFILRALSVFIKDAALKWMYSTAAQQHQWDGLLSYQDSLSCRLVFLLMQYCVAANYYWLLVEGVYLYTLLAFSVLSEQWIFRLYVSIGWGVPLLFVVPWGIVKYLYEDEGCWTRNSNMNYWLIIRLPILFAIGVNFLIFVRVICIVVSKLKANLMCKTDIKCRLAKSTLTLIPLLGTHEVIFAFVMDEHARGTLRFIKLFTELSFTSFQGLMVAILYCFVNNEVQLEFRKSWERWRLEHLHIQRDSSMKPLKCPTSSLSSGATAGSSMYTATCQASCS

`CCn1nncc1Cn1c(Cc2ccc(-c3cccc(OCc4ccc(C#N)cc4F)n3)cc2F)nc2ccc(C(=O)O)cc21` [Example 370, 2-(4-(6-((4-cyano-2-fluorobenzyl)oxy)pyridin-2-yl)-2-fluorobenzyl)-1-((l-ethyl-1H-1,2,3-triazol-5-yl)methyl)-1H-benzo[d]imidazole-6-carboxylic acid]: the EC50 in data set [1] (setting [3]) came out at 3.34 nM. Moreover, the “Predicted Hepatic Clearance (Pred. Cl.)” value in data set [2] was 6.7 mL/min/kg.

`N#Cc1ccc(COc2cccc(-c3ccc(Cc4nc5ccc(C(=O)O)cc5n4Cc4ncco4)c(F)c3)n2)c(F)c1` [Example 371, 2-(4-(6-((4-cyano-2-fluorobenzyl)oxy)pyridin-2-yl)-2-fluorobenzyl)-1-(oxazol-2-ylmethyl)-1H-benzo[d]imidazole-6-carboxylic acid]: the EC50 in data set [1] (setting [3]) amounted to 1.61 nM. Also, the “Predicted Hepatic Clearance (Pred. Cl.)” value in data set [2] was 3 mL/min/kg.

For the compound `COCCn1c(Cc2c(F)cc(-c3cccnc3OC(C)c3ccc(Cl)cc3F)cc2F)nc2ccc(C(=O)O)cc21` (stereo not shown) [Example 372, 2-(4-(2-(1-(4-chloro-2-fluorophenyl)ethoxy)pyridin-3-yl)-2,6-difluorobenzyl)-1-(2-methoxyethyl)-1H-benzo[d]imidazole-6-carboxylic acid], in data set [1] (setting [3]), the EC50 worked out at 243 nM. The “Predicted Hepatic Clearance (Pred. Cl.)” value in data set [2] is 7.83 mL/min/kg.

For the compound `COCCn1c(Cc2ccc(-c3cccc(OCc4cccc(=O)n4C)n3)cc2F)nc2ccc(C(=O)O)cc21` [Example 373, 2-(2-fluoro-4-(6-((1-methyl-6-oxo-1,6-dihydropyridin-2-yl)methoxy)pyridin-2-yl)benzyl)-1-(2-methoxyethyl)-1H-benzo[d]imidazole-6-carboxylic acid], in data set [1] (setting [3]), the EC50 stood at 4770 nM. Besides, in data set [2], the “Predicted Hepatic Clearance (Pred. Cl.)” value is 19.5 mL/min/kg.

`COCCn1c(Cc2ccc(-c3cccc(OCc4cccn(C)c4=O)n3)cc2F)nc2ccc(C(=O)O)cc21` [Example 374, 2-(2-fluoro-4-(6-((1-methyl-2-oxo-1,2-dihydropyridin-3-yl)methoxy)pyridin-2-yl)benzyl)-1-(2-methoxyethyl)-1H-benzo[d]imidazole-6-carboxylic acid]: in data set [1] (setting [3]), the EC50 came to 1930 nM. The “Predicted Hepatic Clearance (Pred. Cl.)” value in data set [2] is 6.5 mL/min/kg.

In the case of `N#Cc1ccc(COc2cccc(-c3ccc(Cc4nc5ccc(C(=O)O)cc5n4CC4(CO)CC4)c(F)c3)n2)c(F)c1` [Example 375, 2-(4-(6-((4-cyano-2-fluorobenzyl)oxy)pyridin-2-yl)-2-fluorobenzyl)-1-((1-(hydroxymethyl)cyclopropyl)methyl)-1H-benzo[d]imidazole-6-carboxylic acid], the EC50 in data set [1] (setting [3]) stood at 5.46 nM. The “Predicted Hepatic Clearance (Pred. Cl.)” value in data set [2] was 4.25 mL/min/kg.

Take `N#CCC1(n2c(Cc3ccc(-c4cccc(OCc5ccc(C#N)cc5F)n4)cc3F)nc3ccc(C(=O)O)cc32)CC1` [Example 376, 2-(4-(6-((4-cyano-2-fluorobenzyl)oxy)pyridin-2-yl)-2-fluorobenzyl)-1-(1-(cyanomethyl)cyclopropyl)-1H-benzo[d]imidazole-6-carboxylic acid]: the EC50 in data set [1] (setting [3]) was 1.53 nM. Besides, the “Predicted Hepatic Clearance (Pred. Cl.)” value in data set [2] was 3.83 mL/min/kg.

Turning to `COCC1(n2c(Cc3ccc(-c4cccc(OCc5ccc(C#N)cc5F)n4)cc3F)nc3ccc(C(=O)O)cc32)CC1` [Example 377, 2-(4-(6-((4-cyano-2-fluorobenzyl)oxy)pyridin-2-yl)-2-fluorobenzyl)-1-(1-(methoxymethyl)cyclopropyl)-1H-benzo[d]imidazole-6-carboxylic acid], the EC50 in data set [1] (setting [3]) is 10.9 nM. Moreover, the “Predicted Hepatic Clearance (Pred. Cl.)” value in data set [2] was 3.17 mL/min/kg.

In the case of `COCCn1c(Cc2c(F)cc(-c3ccnc(OCc4ccc(C#N)cc4F)n3)cc2F)nc2ccc(C(=O)O)cc21` [Example 378, 2-(4-(2-((4-cyano-2-fluorobenzyl)oxy)pyrimidin-4-yl)-2,6-difluorobenzyl)-1-(2-methoxyethyl)-1H-benzo[d]imidazole-6-carboxylic acid], in data set [1] (setting [3]), the EC50 turned out to be 12.4 nM. Also, in data set [2], the “Predicted Hepatic Clearance (Pred. Cl.)” value was 5.5 mL/min/kg.

`N#Cc1ccc(COc2cccc(-c3ccc(Cc4nc5ccc(C(=O)O)cc5n4CCCF)c(F)c3)n2)c(F)c1` [Example 379, 2-(4-(6-((4-cyano-2-fluorobenzyl)oxy)pyridin-2-yl)-2-fluorobenzyl)-1-(3-fluoropropyl)-1H-benzo[d]imidazole-6-carboxylic acid]: the EC50 in data set [1] (setting [3]) is 2.8 nM. In data set [2], the “Predicted Hepatic Clearance (Pred. Cl.)” value is 3.5 mL/min/kg.

For `COCC1(Cn2c(Cc3ccc(-c4cccc(OCc5ccc(C#N)cc5F)n4)cc3F)nc3ccc(C(=O)O)cc32)CC1` [Example 380, 2-(4-(6-((4-cyano-2-fluorobenzyl)oxy)pyridin-2-yl)-2-fluorobenzyl)-1-((1-(methoxymethyl)cyclopropyl)methyl)-1H-benzo[d]imidazole-6-carboxylic acid], the EC50 in data set [1] (setting [3]) turned out to be 7.72 nM. In addition, in data set [2], the “Predicted Hepatic Clearance (Pred. Cl.)” value is less than 1.83 mL/min/kg.

In the case of `N#Cc1ccc(COc2cccc(-c3ccc(Cc4nc5ccc(C(=O)O)cc5n4C4(CF)CC4)c(F)c3)n2)c(F)c1` [Example 381, 2-(4-(6-((4-cyano-2-fluorobenzyl)oxy)pyridin-2-yl)-2-fluorobenzyl)-1-(1-(fluoromethyl)cyclopropyl)-1H-benzo[d]imidazole-6-carboxylic acid], the half-maximal effective concentration (EC50) in data set [1] (setting [3]) turned out to be 7.43 nM. In addition, the “Predicted Hepatic Clearance (Pred. Cl.)” value in data set [2] is less than 1.83 mL/min/kg.

For the compound `N#Cc1ccc(COc2cccc(-c3ccc(Cc4nc5ccc(C(=O)O)cc5n4CC4CCC4)c(F)c3)n2)c(F)c1` [Example 382, 2-(4-(6-((4-cyano-2-fluorobenzyl)oxy)pyridin-2-yl)-2-fluorobenzyl)-1-(cyclobutylmethyl)-1H-benzo[d]imidazole-6-carboxylic acid], in data set [1] (setting [3]), the EC50 stood at 8.7 nM. In addition, in data set [2], the “Predicted Hepatic Clearance (Pred. Cl.)” value is less than 1.83 mL/min/kg.

In data set [1] (EC50 (nM)), `COCCn1c(Cc2ccc(-c3cccc(OCc4ccc(C#N)cc4F)n3)cc2NC(=O)OC)nc2ccc(C(=O)O)cc21` [Example 383, 2-(4-(6-((4-cyano-2-fluorobenzyl)oxy)pyridin-2-yl)-2-((methoxycarbonyl)amino)benzyl)-1-(2-methoxyethyl)-1H-benzo[d]imidazole-6-carboxylic acid] had an EC50 of 123 nM. The “Predicted Hepatic Clearance (Pred. Cl.)” value in data set [2] is 8.67 mL/min/kg.

As to `CC1(Cn2c(Cc3ccc(-c4cccc(OCc5ccc(C#N)cc5F)n4)cc3F)nc3ccc(C(=O)O)cc32)CCC1` [Example 384, 2-(4-(6-((4-cyano-2-fluorobenzyl)oxy)pyridin-2-yl)-2-fluorobenzyl)-1-((1-methylcyclobutyl)methyl)-1H-benzo[d]imidazole-6-carboxylic acid], in data set [1] (setting [3]), the EC50 was determined as 1.45 nM. Further, the “Predicted Hepatic Clearance (Pred. Cl.)” value in data set [2] was less than 1.83 mL/min/kg.

For the compound `N#Cc1ccc(COc2cccc(-c3ccc(Cc4nc5ccc(C(=O)O)cc5n4CC4(C(F)F)CCC4)c(F)c3)n2)c(F)c1` [Example 385, 2-(4-(6-((4-cyano-2-fluorobenzyl)oxy)pyridin-2-yl)-2-fluorobenzyl)-1-((1-(difluoromethyl)cyclobutyl)methyl)-1H-benzo[d]imidazole-6-carboxylic acid], the EC50 in data set [1] (setting [3]) came out at 1.34 nM. In data set [2], the “Predicted Hepatic Clearance (Pred. Cl.)” value is 5.33 mL/min/kg.

For `COCCn1c(Cc2ccc(-c3cccc(OCc4ccc(C#N)cc4F)n3)cc2F)nc2ccc(CC(=O)O)cc21` [Example 386, 2-(2-(4-(6-((4-cyano-2-fluorobenzyl)oxy)pyridin-2-yl)-2-fluorobenzyl)-1-(2-methoxyethyl)-1H-benzo[d]imidazol-6-yl)acetic acid], a half-maximal response in data set [1] (EC50 (nM)) (EC50) required 157 nM. The “Predicted Hepatic Clearance (Pred. Cl.)” value in data set [2] was 2 mL/min/kg.

On to `COCCn1c(Cc2ccc(-c3cccc(OCc4ccc(C#N)cc4F)n3)cc2S(C)(=O)=O)nc2ccc(C(=O)O)cc21` [Example 387, 2-(4-(6-((4-cyano-2-fluorobenzyl)oxy)pyridin-2-yl)-2-(methylsulfonyl)benzyl)-1-(2-methoxyethyl)-1H-benzo[d]imidazole-6-carboxylic acid], for which, in data set [1] (setting [3]), the EC50 worked out at 504 nM. In addition, the “Predicted Hepatic Clearance (Pred. Cl.)” value in data set [2] was 8.3 mL/min/kg.

Consider `N#CCC1(Cn2c(Cc3ccc(-c4cccc(OCc5ccc(C#N)cc5F)n4)cc3C#N)nc3ccc(C(=O)O)cc32)CC1` [Example 388, 2-(2-cyano-4-(6-((4-cyano-2-fluorobenzyl)oxy)pyridin-2-yl)benzyl)-1-((1-(cyanomethyl)cyclopropyl)methyl)-1H-benzo[d]imidazole-6-carboxylic acid], for which the EC50 in data set [1] (setting [3]) worked out at 0.24 nM. The “Predicted Hepatic Clearance (Pred. Cl.)” value in data set [2] was 5.17 mL/min/kg.

Consider `N#Cc1ccc(COc2cccc(-c3ccc(Cc4nc5ccc(C(=O)O)cc5n4CC4CC4)c(F)c3)n2)c(F)c1` [Example 389, 2-(4-(6-((4-cyano-2-fluorobenzyl)oxy)pyridin-2-yl)-2-fluorobenzyl)-1-(cyclopropylmethyl)-1H-benzo[d]imidazole-6-carboxylic acid], for which the EC50 in data set [1] (setting [3]) was 26.6 nM. In addition, the “Predicted Hepatic Clearance (Pred. Cl.)” value in data set [2] was less than 1.83 mL/min/kg.

With `COCCCn1c(Cc2ccc(-c3cccc(OCc4ccc(C#N)cc4F)n3)cc2F)nc2ccc(C(=O)O)cc21` [Example 390, 2-(4-(6-((4-cyano-2-fluorobenzyl)oxy)pyridin-2-yl)-2-fluorobenzyl)-1-(3-methoxypropyl)-1H-benzo[d]imidazole-6-carboxylic acid], the EC50 in data set [1] (setting [3]) was found to be 26.4 nM. For the same compound, the “Predicted Hepatic Clearance (Pred. Cl.)” value in data set [2] is 7.5 mL/min/kg.

In the case of `COCCn1c(Cc2ccc(-c3cccc(OCc4ccc(C#N)cc4F)n3)c(F)c2C#N)nc2ccc(C(=O)O)cc21` [Example 391, 2-(2-cyano-4-(6-((4-cyano-2-fluorobenzyl)oxy)pyridin-2-yl)-3-fluorobenzyl)-1-(2-methoxyethyl)-1H-benzo[d]imidazole-6-carboxylic acid], the EC50 in data set [1] (setting [3]) was not below 1000 nM. Moreover, the “Predicted Hepatic Clearance (Pred. Cl.)” value in data set [2] is 5.42 mL/min/kg.

In the case of `N#Cc1ccc(COc2cccc(-c3ccc(Cc4nc5ccc(C(=O)O)cc5n4CCCO)c(F)c3)n2)c(F)c1` [Example 392, 2-(4-(6-((4-cyano-2-fluorobenzyl)oxy)pyridin-2-yl)-2-fluorobenzyl)-1-(3-hydroxypropyl)-1H-benzo[d]imidazole-6-carboxylic acid], in data set [1] (setting [3]), the half-maximal effective concentration (EC50) stood at 14.5 nM. Further, in data set [2], the “Predicted Hepatic Clearance (Pred. Cl.)” value is 3.17 mL/min/kg.
